Laboratory results taken from patent publication US10253322B2, “Method for the production of transgenic plants” (MONSANTO TECHNOLOGY LLC, priority 2001, dated 2019).

How the values were obtained:
wheat mesocotyl explants [1] = assay: Multiple shoot production with cytokinins alone, wheat mesocotyl explants; type: cell-based; details: cytokinin 5 mg/L, 32 days after culture
Experimental: A. Wheat mesocotyl explant: Mature wheat seeds were surface sterilized first in 70% ethanol for 1 min. and then soaked in 20% CLOROX® (5.25% sodium hypochlorite) and shaken at 250 rpm for 20 min. The seeds were then rinsed five times with sterile distilled water and then placed in 100×25 mm petri dishes containing a sterile piece of felt and ˜15 mL of double distilled sterile water with 5 μM BA for germination. The seeds were cultured for 1 day in darkness at ˜24° C. Mesocotyl sections about 2-3 mm in length were then excised by removing the upper portion of the coleoptile, approximately 1-1.5 mm in length, and root tissue around the crown region. These mesocotyl explants contain at least several different and distinct meristems, such as a scutellar node, a coleoptile node, a first leaf bud and possibly several leaf nodes, and an apical meristem. This mesocotyl explant thus comprises an apical meristem and several axillary meristems, including the scutellar node meristem. […] It is also important that the explants have all of the described meristems intact after excision, in order to maximize multiple bud response in culture.
Wheat explants such as mesocotyl sections from seedlings, mature embryos from mature seeds, and immature embryos from immature seeds were cultured on multiple shoot inducing media comprising combinations of cytokinins, auxins and abscisic acid (ABA). […] The particular media compositions used for this invention are described in detail in Table 1. The mesocotyl explants were placed on media with the acropetal end up, and mature and immature embryo explants were placed on media with the scutellum-side up. […]
For the first three weeks, the explants were usually trimmed, by removing the top portion of coleoptile 3-5 mm above the crown region for wheat, every 3 to 5 days to inhibit dominant growth.
Four different cytokinins, not in combination with auxin, were tested for their ability to induce multiple shoot induction on wheat mesocotyl explants: BA, kinetin, zeatin and TDZ.

wheat mesocotyl explants [2] = assay: Multiple bud induction from primary meristems on multiple shoot inducing media, wheat mesocotyl explants; type: cell-based; details: 4 weeks after culture initiation (Table 3)
Experimental: A. Wheat mesocotyl explant: Mature wheat seeds were surface sterilized first in 70% ethanol for 1 min. and then soaked in 20% CLOROX® (5.25% sodium hypochlorite) and shaken at 250 rpm for 20 min. The seeds were then rinsed five times with sterile distilled water and then placed in 100×25 mm petri dishes containing a sterile piece of felt and ˜15 mL of double distilled sterile water with 5 μM BA for germination. The seeds were cultured for 1 day in darkness at ˜24° C. Mesocotyl sections about 2-3 mm in length were then excised by removing the upper portion of the coleoptile, approximately 1-1.5 mm in length, and root tissue around the crown region. These mesocotyl explants contain at least several different and distinct meristems, such as a scutellar node, a coleoptile node, a first leaf bud and possibly several leaf nodes, and an apical meristem. This mesocotyl explant thus comprises an apical meristem and several axillary meristems, including the scutellar node meristem. It is important when excising the mesocotyl explant to leave a whole piece of the scutellum attached to the explant, because the scutellar node meristem contributes a large primary meristem from which upwards of 100 buds can be produced via the method of the present invention, relative to the small primary meristems contributed by the other meristems from which a smaller number of buds can be produced. […]

[3] = system: shoots from Bobwhite mesocotyl explants; assay: Root induction of elongated shoots; type: cell-based, wheat; details: IBA 1 mg/L
Experimental: Usually three to five weeks after the induction stage culture described above, multiple bud clumps were divided and transferred to a shoot elongation medium, and cultured under 16 h photoperiod at about 25° C. for 3 to 4 weeks. The shoot elongation medium comprised MS basal medium supplemented with ascorbic acid at 100 mg/L, 2-[N-Morpholino]ethanesulfonic acid (MES) at 1.95 g/L, casein hydrolysate at 100 mg/L, maltose at 40 g/L, and Schweizer-Hall® gelling agent at 2 g/L. The elongated shoots were transferred to a rooting medium, comprising MS basal medium supplemented with IBA at 1 mg/L, ascorbic acid at 100 mg/L, 2-[N-Morpholino] ethanesulfonic acid (MES) at 1.95 g/L, casein hydrolysate at 100 mg/L, maltose at 40 g/L, and Schweizer-Hall® gelling agent at 2 g/L, for 3 to 4 weeks, after which sufficient roots had formed to transfer the shoots to soil.
Three genotypes were tested to evaluate shoot elongation from the buds induced in the above described multiple shoot induction step. Bobwhite, 251BW012 and Autry525 were chosen as representative standard, good and poor lines respectively, based on a previous study of embryogenic regeneration capacity. The buds were removed from the media containing the growth regulator combination described in the induction stage, after about 3-5 weeks of culture. […]

[4] = (D) continuous dark first two weeks, then light 16/8 two weeks
[5] = (L) 16 h photoperiod for four weeks

| Compound | % of explants producing 2-5 shoots (each from a single primary meristem) (wheat mesocotyl explants [1]; [4]) [%] | % of explants producing multiple shoots from a single primary meristem (wheat mesocotyl explants [1]; [4]) [%] | % of explants producing 2-5 shoots (each from a single primary meristem) (wheat mesocotyl explants [1]; [5]) [%] | % of explants producing multiple shoots from a single primary meristem (wheat mesocotyl explants [1]; [5]) [%] | % explants producing 20-80 buds/primary meristem (wheat mesocotyl explants [2]) [%] | No. primary meristems produced/explant (wheat mesocotyl explants [2]) | % shoots producing roots [3] |
| --- | --- | --- | --- | --- | --- | --- | --- |
| O=C(Nc1ccccc1)Nc1cnns1 [TDZ, thidiazuron] | 76.2 | 0 | 80.0 | 0 | 0 | 2-5 |  |
| O=C(O)CCCc1c[nH]c2ccccc12 [IBA, 3-indolebutyric acid] |  |  |  |  |  |  | significantly increased the rooting response |
| c1coc(CNc2ncnc3[nH]cnc23)c1 [Kinetin, kinetin] | 23.8 | 0 | 20.0 | 0 |  |  |  |
| C/C(=C\CNc1ncnc2[nH]cnc12)CO [Zeatin, zeatin] | 45.0 | 0 | 20.0 | 0 |  |  |  |
| c1ccc(CNc2ncnc3nc[nH]c23)cc1 [BA, 6-benzylaminopurine] | 15.0 | 0 | 10.0 | 0 |  |  |  |
